# Test results taken from patent US20140171424A1, “HYPERTENSION AND HYPERURICEMIA” (ARDEA BIOSCIENCES, INC., priority 2011, published 2014).
# Several values for one entry are separate records, joined by “and”; a condition that tells them apart may be missing. Identical values can stand only once. Like-named read-outs stand apart in the source and are kept apart here.
# Experiments:
# [1] = molecular target: T1, OAT4 (Homo sapiens, UniProt Q9NSA0); settings: read-out: IC50, inhibition of OAT4 uptake of 3H-estrone sulfate; cited from earlier work
# T1 sequence (Q9NSA0 1-550): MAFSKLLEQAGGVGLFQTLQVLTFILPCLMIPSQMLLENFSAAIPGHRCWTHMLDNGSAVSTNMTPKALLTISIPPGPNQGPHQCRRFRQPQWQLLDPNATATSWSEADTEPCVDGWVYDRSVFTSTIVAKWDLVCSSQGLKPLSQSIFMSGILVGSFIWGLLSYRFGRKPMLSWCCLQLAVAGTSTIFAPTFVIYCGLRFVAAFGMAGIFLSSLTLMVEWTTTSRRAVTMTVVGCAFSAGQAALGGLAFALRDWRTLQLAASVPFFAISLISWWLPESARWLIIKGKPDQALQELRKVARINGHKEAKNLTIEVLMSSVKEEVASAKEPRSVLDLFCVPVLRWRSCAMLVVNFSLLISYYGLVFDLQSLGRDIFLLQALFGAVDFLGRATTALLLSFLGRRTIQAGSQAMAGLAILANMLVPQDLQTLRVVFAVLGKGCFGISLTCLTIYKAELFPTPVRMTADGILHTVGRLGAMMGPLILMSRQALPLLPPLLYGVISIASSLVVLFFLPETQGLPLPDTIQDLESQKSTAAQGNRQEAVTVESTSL
# [2] = molecular target: T1, OAT4; test: OAT4 urate (14C-uric acid) transport in transfected HEK293/293T cells; assay type: cell-based; design: expressed in transfected cells; settings: for OAT4 transport activity of 14C-uric acid: UA 100 μM, drug 100 μM, 5 min incubation, OAT4-expressing HEK293 cells
# Protocol: (§1) For cultured cells, HEK293 cells stably expressing the transporters were produced through transfection of DNA constructs carrying the transporters, antibiotic selection, and clonal selection of clones with high transporter activity. Alternatively, cells transiently expressing the transporters were produced by reverse transfection of HEK293T cells. Transfectants were plated at high density onto poly-L-lysine coated multiwell plates and assayed 1-2 days later.
# [3] = molecular target: T1, OAT4; settings: cited from earlier work; for effect on OAT4 uric acid transport activity: J. Am. Soc. Nephrol. 18:430 and 18:3101, 2007
# [4] = molecular target: T1, OAT4; test: 3H-Estrone sulphate (ES) transport in 293T cells stably expressing OAT4; assay type: cell-based; design: expressed in transfected cells; settings: 1 mM HCTZ, varying concentrations of Lesinurad
# Protocol: as §1, with “later. Results were similar for stable and transient expressing cells.” for “later.”
# [5] = molecular target: T2, URAT1 (Homo sapiens, UniProt Q96S37); test: URAT1 UA transport in 293T cells; assay type: cell-based; settings: 293T cells expressing URAT1 and/or OAT4; varying concentrations
# T2 construct: expressed in transfected cells; host or cells: 293T cells
# T2 sequence (Q96S37 1-553): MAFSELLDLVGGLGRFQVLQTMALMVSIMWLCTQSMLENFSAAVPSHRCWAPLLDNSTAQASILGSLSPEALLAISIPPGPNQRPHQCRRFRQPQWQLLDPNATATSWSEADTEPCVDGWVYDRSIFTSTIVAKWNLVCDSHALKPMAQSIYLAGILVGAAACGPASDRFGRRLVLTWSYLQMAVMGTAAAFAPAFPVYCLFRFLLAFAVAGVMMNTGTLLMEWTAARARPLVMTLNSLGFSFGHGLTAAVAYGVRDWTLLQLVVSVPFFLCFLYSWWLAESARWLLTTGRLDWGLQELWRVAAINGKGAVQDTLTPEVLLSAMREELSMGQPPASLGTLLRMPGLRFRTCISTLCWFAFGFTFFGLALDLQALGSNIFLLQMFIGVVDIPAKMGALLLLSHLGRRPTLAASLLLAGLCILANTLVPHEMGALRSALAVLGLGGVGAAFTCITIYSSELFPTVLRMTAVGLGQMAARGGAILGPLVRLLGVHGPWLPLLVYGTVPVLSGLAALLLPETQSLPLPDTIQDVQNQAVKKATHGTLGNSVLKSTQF
# Protocol: as §1
# [6] = Clinical phase 2 study in gout patients not adequately responding to allopurinol (sUA <6 mg/dL responders); assay type: in vivo, human; settings: Week 4; Lesinurad added to allopurinol regimen; patients receiving thiazide diuretic
# Protocol: FIG. 10A represents a schematic of a clinical phase 2 study design. The study was a 4-week, double-blind, placebo-controlled clinical trial in 208 gout patients who were not adequately responding to allopurinol with serum urate (sUA)≧6 mg/dL while receiving a stable dose of allopurinol for at least 6 weeks. One of three doses of Lesinurad or matching placebo was added to the patients allopurinol regimen. The primary endpoint of the study was mean reduction in sUA at Week 4, with the key secondary endpoint the proportion of subjects with sUA <6.0 mg/dL at Week 4. A small number of patients in this trial received a thiazide diuretic during the treatment period; their response rates were compared to those patients not receiving concomitant thiazide diuretics and the results presented in FIG. 10B.
# [7] = molecular target: T1, OAT4; test: OAT4 transport of 6-carboxyfluorescein (CF) in transfected HEK293/HEK293T cells; assay type: cell-based; design: expressed in transfected cells; settings: for OAT4 transport activity of 6-carboxyfluorescein: CF 5 μM, drug 100 μM, 5 min incubation, OAT4-expressing HEK293 cells
# Protocol: as §1, with “later. Results were similar for stable and transient expressing cells.” for “later.”
smiles,measurement,setting,value
CCc1oc2cc(O)ccc2c1C(=O)c1cc(Br)c(O)c(Br)c1 [6-hydroxybenzbromarone],IC50,[1],3.2 µM
CCc1oc2ccccc2c1C(=O)c1cc(Br)c(O)c(Br)c1 [Benzbromarone],IC50,"[2]; varying amounts of drug, read-out: OAT4 IC50 (OAT4 urate transport, cpm)",10 µM
"NS(=O)(=O)c1cc2c(cc1Cl)NCNS2(=O)=O [Hydrochlorothiazide, 6-Chloro-1,1-dioxo-3,4-dihydro-2H-1,2,4-benzothiadiazine-7-sulfonamide]",effect on OAT4 uric acid transport activity,[3],increase OAT4 uric acid transport activity
same,increase of OAT4-mediated uric acid uptake,[3]; one study,2.6 fold
same,effect of HCTZ on Lesinurad-mediated inhibition of OAT4 ES transport,[4],no effect on Lesinurad-mediated inhibition of OAT4 transporter activity
"O=C(O)CSc1nnc(Br)n1-c1ccc(C2CC2)c2ccccc12 [Lesinurad, 2-(5-bromo-4-(4-cyclopropylnaphthalen-l-yl)-4H-1,2,4-triazol-3-ylthio)acetic acid]","percent inhibition of UA transport, URAT1",[5],inhibits URAT1 and OAT4 with similar potency
same,"proportion of patients with sUA below 6 mg/dL, patients taking diuretics vs not",[6],patients receiving diuretics had responded well to Lesinurad
Oc1ncnc2[nH]ncc12 [allopurinol],OAT4 transport activity of 6-carboxyfluorescein,[7],do not inhibit OAT4 transport activity
same,OAT4 transport activity of 14C-uric acid,[2],do not inhibit OAT4 transport activity
O=c1[nH]c(=O)c2c[nH]nc2[nH]1 [oxypurinol],OAT4 transport activity of 6-carboxyfluorescein,[7],do not inhibit OAT4 transport activity
same,OAT4 transport activity of 14C-uric acid,[2],do not inhibit OAT4 transport activity
Cc1cccc(Nc2ccncc2S(=O)(=O)NC(=O)NC(C)C)c1 [torasemide],effect on OAT4 uric acid transport activity,[3],increase OAT4 uric acid transport activity
O=c1[nH]c(=O)c2[nH]c(=O)[nH]c2[nH]1 [uric acid],EC50,"[7]; HEK293T cells transiently transfected with OAT4, CF substrate, 0, 0.5, 1, 2 nM cold uric acid, read-out: EC50 of cold uric acid as competitive substrate for OAT4 of CF",900 µM and ~900 µM
